Series [1] relates to EBC-1 cells. Briefly: Cellular uptake in EBC-1 cells by flow cytometry. It counts as cell-based. To be noted: 0.1, 1, 10 µM; 2, 6, 24, 72 h. As for the experimental part: 2 × 10^4 EBC-1 cells per well were seeded onto 24 well plates (VWR) and allowed to adhere for 48 h. Cells were treated with [D-Lys^6(FITC)]–GnRH-I in complemented EMEM (Lonza) at 0.1, 1, and 10 µM, and incubated in a humidified, 5% CO2 atmosphere incubator for 2, 6, 24, and 72 h at 37 °C.
After incubation, supernatant was discarded and the cells were washed twice with PBS (Lonza). Trypsin (Thermo Fisher Scientific, cat. no.: 25300062) was added for 10 min at 37 °C. Cells were pelleted (250× g, 4 min, 4 °C) in flow cytometry tubes, resuspended in 300 µL PBS and kept at 4 °C for the rest of the experiment. The fluorescence intensity of the conjugate-stained cells was analysed using a FACS Calibur flow cytometer (BD Biosciences, San Jose, CA) using channel FL1. Data were evaluated by CellQuest Pro software (BD Biosciences). The relative median fluorescent intensity (MFI) values (based on DMSO control) were calculated.
Calculation formula: relative MFI compound;xh;yµM=MFI compound;xh;yµM/MFI DMSO control;xh • x time (h) • y concentration (µM)

Series [2] concerns EBC-1 cells. Briefly: Colocalization with lysosomes in EBC-1 cells by confocal microscopy. It counts as cell-based. To be noted: 10 µM, 24 h. How it is done: EBC-1 cells were seeded in eight well Ibidi® μ-Slide microscopic slides (2 × 10^4 cells/well) and allowed to adhere for 48 h. Cells were then treated with 10 µM [D-Lys^6(FITC)]–GnRH-I in complemented EMEM (Lonza) and incubated in a humidified, 5% CO2 atmosphere incubator for 24 h at 37 °C.
To investigate colocalization of [D-Lys^6(FITC)]–GnRH-I with lysosomes (in Figure 6), after [D-Lys^6(FITC)]–GnRH-I treatment (24 h, 10 µM), Lysoview 633 dye was added to the treating medium and the cells were incubated for a further 1 h. After incubation, cells were washed twice with EMEM. Images of the living cells were acquired with a Zeiss Confocal LSM 710 microscope [Objective: Plan-Apochromat 63×/1.40 Oil DIC M27. Pinhole: 1.95 AU. Laser wavelength: 488 nm and 633 nm. Detection wavelength: 496–573 nm; 633–693 nm)].

On the set-up of series [3]: method as in PMID 10639165. Particulars: cited from earlier work.
The next series concerns endometrial cancer. The arrangement: method as in https://clinicaltrials.gov. To be noted: phase III, ref https://clinicaltrials.gov; cited from earlier work.

For the compound `CC(C)C[C@H](NC(=O)[C@@H](CCCCNC(=S)Nc1ccc2c(c1)C(=O)OC21c2ccc(O)cc2Oc2cc(O)ccc21)NC(=O)[C@H](Cc1ccc(O)cc1)NC(=O)[C@H](CO)NC(=O)[C@H](Cc1c[nH]c2ccccc12)NC(=O)[C@H](Cc1c[nH]cn1)NC(=O)[C@@H]1CCC(=O)N1)C(=O)N[C@@H](CCCNC(=N)N)C(=O)N1CCC[C@H]1C(=O)NCC(N)=O` [[D-Lys^6(FITC)]–GnRH-I], the cellular uptake result in the series on EBC-1 cells [1] was “concentration-dependent dynamic uptake”. For the same compound, the “colocalization with lysosome marker Lysoview 633” value in the series with EBC-1 cells [2] is listed as “highly correlated”.
Take zoptarelin doxorubicin: the “half-life in human serum” value in series [3] was “approximately 2 h”. For the same compound, the “clinical outcome compared to doxorubicin” value with endometrial cancer is recorded as “could neither extend overall survival, nor improve the safety profile”.

The values above are taken from PMC6888004 (International Journal of Molecular Sciences, 2019).
